Among the data in patent publication US20260217767A1, “NOVEL A4B7 THIOETHER PEPTIDE DIMER ANTAGONISTS” (Protagonist Therapeutics, Inc., priority 2014, published 2026) are IC50 and half-life values, retold here.

*1 amine or outer side, *2 acyl side, *3 side chain or, on linkers, in order; H or OH if unused. Where a SMILES comes first, the peptide text is derived from it. Bridges are numbered along the chain shown (N, C = ends). Roman numbers before positions name the chains, in order. [ ]: non-standard residue; d: D form. Phe(4-tBu) = CC(C)(C)c1ccc(C[C@H](N)C(=O)O)cc1; Bip = N[C@@H](Cc1ccc(-c2ccccc2)cc1)C(=O)O; Diglycolyl = O=C(COCC(=O)[*:2])[*:1]; NMeR = CN[C@@H](CCCNC(=N)N)C(=O)O; Tic = O=C(O)[C@@H]1Cc2ccccc2CN1; β3hE = N[C@@H](CCC(=O)O)CC(=O)O; X1 = O=C(c1ccccc1C[*:2])[*:1]; Pen = CC(C)(S)[C@H](N)C(=O)O A value given as a limit tells only on which side of the number the result lay.

As a reminder, the IC50 is the concentration at which inhibition is half-maximal. A higher IC50 goes with lower potency. By half-life is commonly meant the time in which the quantity being followed falls by half.

Data set [1] has as its system CD4+/CD45RO+ memory T cells. Put plainly: PBMC Memory T Cell Adhesion Assay. Format: cell-based, human. Conditions: thioether monomer peptides, Table 6. The method, then:
PBMC Memory T Cell Adhesion Assay
Fresh CD4+/CD45RO+ memory T cells were isolated from human peripheral blood mononuclear cell (PBMC) donors by Aragen Bioscience Inc. (Morgan Hill, CA). The assay plate was prepared using IgG Fc capture antibody (donkey anti human) immobilized at 500 ng/well in 50 mM sodium bicarbonate buffer, pH 9.5, ON, 4 C onto a Greiner Fluotrac plate (100 ul per well). The plate was rinsed two time with Blocking Buffer (25 mM Tris HCl, pH7.5, 150 mM NaCl, 1.5% BSA, 0.05% Tween), and blocked with Blocking Buffer for 2 hours at 37 C or 5 hours at RT using 200 ul per well. The Blocking Buffer was removed and either MAdCAM-1 or VCAM-1 at 400 ng/well in Blocking Buffer was added and the plate incubated overnight at 4 C (100 ul per well). The plate was washed two times with Blocking Buffer, and rinsed once with 200 ul Binding Media (DMEM phenol red free, 10 mM HEPES, 1×Na pyruvate, 1× Glutamine, and supplemented with 1 mM MnC12 prior to use). To prepare cells, approximately 25 million CD4+/CD45RO+ memory T cells were counted by trypan blue exclusion using a haemocytometer to determine viability and cell count. The cells were transferred to a 50 ml conical tube, and centrifuged at 1200 rpm for 10 minute. The media was aspirated and the cell pellet resuspended in 15 ml Binding Media. The cells were centrifuged again and resuspended in the appropriate amount of Binding Media to be used for assays (50 ul of cells per well at 2× the final density). To each well, and equal volume (50 ul) of test compound was added and the plate was incubated for 1.5 hours at 37 C, 5% CO2. Each well was rinsed 3× with 150 ul per well of Binding Media. […] The plate was incubated at 37 C, 5% CO2, for 45 minutes. The plate was protected from light by using black adhesive seals. Fluorescence intensity was measured using a Molecular Devices Gemini EM Fluorescent Plate Reader (Ex 485/Em530, Bottom Read, Reading Sensitivity=20). IC50 curves are generated using Graph Pad Prism and the curves analyzed using analyzed using a non-linear regression (four parameters) algorithm. The log (concentration) versus RFU (Ex485/Em530) was plotted to determine IC50 values.

Data set [2] is described as follows: Simulated Gastric Fluid (SGF) Stability Assay. Format: in vitro ADME. The conditions noted are these: pig, pH 2, 37° C., dimers, Table 7; for half-life at 20 μM: simulated gastric fluid (SGF) with porcine pepsin; for half-life: simulated gastric fluid (with porcine pepsin). The method, then:
Simulated Gastric Fluid (SGF) Stability Assays
Studies were carried out in simulated gastric fluid (SGF) to evaluate intestinal stability of the peptide molecules of the instant invention. SGF was prepared by adding 20 mg NaCl, 32 mg porcine pepsin (MP Biochemicals, catalog 02102599), and 70 μl HCl to 10 ml water (final pH=2). Aliquots of SGF (0.5 ml each) were pre-warmed at 37° C. To start the reaction, 1 μl of peptide stock solution (10 mM in DMSO) was added to 0.5 ml SGF and thoroughly mixed such that the final peptide concentration was 20 μM. The reactions were incubated at 37° C. with gentle shaking. At each time point (0, 15, 30, 60 min) 50 μl aliquots were removed and added to 200 μl acetonitrile containing 0.1% formic acid to quench the reaction. Samples are stored at 4° C. until the end of the experiment and centrifuged at 10,000 rpm for 5 minutes. Aliquots of the supernatant were removed, diluted 1:1 into distilled water containing internal standard, and analyzed by LCMS/MS. Percent remaining at each timepoint was calculated based on the peak area response ratio of test to compound to internal standard. Time 0 was set to 100%, and all later timepoints were calculated relative to time 0. Half-lives were calculated by fitting to a first-order exponential decay equation using GraphPad.

In the case of `CC(C)C[C@@H]1NC(=O)[C@H]([C@@H](C)O)NC(=O)[C@H](CC(=O)O)NC(=O)[C@H](CO)NC(=O)[C@H](CCCNC(=N)N)N(C)C(=O)c2ccccc2CSC(C)(C)[C@@H](C(=O)N[C@@H](Cc2c[nH]c3ccccc23)C(=O)N[C@H](CCC(=O)O)C(=O)N[C@@H](Cc2ccccc2)C(N)=O)NC1=O` [compound 101] (HELM PEPTIDE1{[meR].S.D.T.L.[Pen].W.[dE].F.[am]}|CHEM1{[O=C(c1ccccc1C[*:2])[*:1]]}$PEPTIDE1,CHEM1,1:R1-1:R1|PEPTIDE1,CHEM1,6:R3-1:R2$$$V2.0), in data set [1], the half-inhibitory concentration (IC50) fell in the range of 100 to 1000 nM.
The same measure, in the same setting: with `CC(C)C[C@@H]1NC(=O)[C@H]([C@@H](C)O)NC(=O)[C@H](CC(=O)O)NC(=O)[C@H](CO)NC(=O)[C@H](CCCNC(=N)N)N(C)C(=O)c2ccccc2CSC(C)(C)[C@@H](C(=O)N[C@@H](Cc2ccc(-c3ccccc3)cc2)C(=O)N[C@@H](CCC(=O)O)CC(N)=O)NC1=O` [compound 133] ([NMeR]SDTL[Pen][Bip][β3hE]-NH2; linker N-6 via X1) the figure was 100 to 1000 nM; with `CC(C)C[C@@H]1NC(=O)[C@H]([C@@H](C)O)NC(=O)[C@H](CC(=O)O)NC(=O)[C@H](CO)NC(=O)[C@H](CCCNC(=N)N)N(C)C(=O)c2ccccc2CSC(C)(C)[C@@H](C(=O)N[C@@H](Cc2ccc(C(C)(C)C)cc2)C(=O)N[C@@H](CCC(=O)O)CC(N)=O)NC1=O` [compound 134] ([NMeR]SDTL[Pen][Phe(4-tBu)][β3hE]-NH2; linker N-6 via X1), 25 to 100 nM.
As for `CC(C)C[C@@H]1NC(=O)[C@H]([C@@H](C)O)NC(=O)[C@H](CC(=O)O)NC(=O)[C@H](CO)NC(=O)[C@H](CCCNC(=N)N)N(C)C(=O)c2ccccc2CSC(C)(C)[C@@H](C(=O)N[C@@H](Cc2ccc(-c3ccccc3)cc2)C(=O)N[C@H](CCC(=O)O)C(=O)N[C@H](CCCCN)C(N)=O)NC1=O` [compound 178] (HELM PEPTIDE1{[meR].S.D.T.L.[Pen].[O=C([C@H](Cc1ccc(-c2ccccc2)cc1)N[*:1])[*:2]].[dE].[dK].[am]}|CHEM1{[O=C(c1ccccc1C[*:2])[*:1]]}$PEPTIDE1,CHEM1,1:R1-1:R1|PEPTIDE1,CHEM1,6:R3-1:R2$$$V2.0), the half-life at 20 μM in data set [2] was greater than 3 h.
The same measure, in the same setting: to `CC(C)C[C@@H]1NC(=O)[C@H]([C@@H](C)O)NC(=O)[C@H](CC(=O)O)NC(=O)[C@H](CO)NC(=O)[C@H](CCCNC(=N)N)N(C)C(=O)c2ccccc2CSC[C@@H](C(=O)N2Cc3ccccc3C[C@H]2C(=O)N[C@H](CCC(=O)O)C(=O)N[C@H](CCCCNC(=O)COCC(=O)NCCCC[C@@H](NC(=O)[C@@H](CCC(=O)O)NC(=O)[C@@H]2Cc3ccccc3CN2C(=O)[C@@H]2CSCc3ccccc3C(=O)N(C)[C@@H](CCCNC(=N)N)C(=O)N[C@@H](CO)C(=O)N[C@@H](CC(=O)O)C(=O)N[C@@H]([C@@H](C)O)C(=O)N[C@@H](CC(C)C)C(=O)N2)C(N)=O)C(N)=O)NC1=O` [compound 184] (I: [NMeR]SDTLC[Tic][dE][dK]-NH2 / II: [NMeR]SDTLC[Tic][dE][dK]-NH2; linker I:9-II:9 via Diglycolyl; linker I:N-I:6, II:N-II:6 via X1) belongs greater than 3 h.
Take `CC(C)C[C@@H]1NC(=O)[C@H]([C@@H](C)O)NC(=O)[C@H](CC(=O)O)NC(=O)[C@H](CO)NC(=O)[C@H](CCCNC(=N)N)N(C)C(=O)c2ccccc2CSC(C)(C)[C@@H](C(=O)N[C@@H](Cc2ccccc2)C(=O)N[C@H](CCC(=O)O)C(=O)N[C@H](CCCCNC(=O)COCC(=O)NCCCC[C@@H](NC(=O)[C@@H](CCC(=O)O)NC(=O)[C@H](Cc2ccccc2)NC(=O)[C@H]2NC(=O)[C@H](CC(C)C)NC(=O)[C@H]([C@@H](C)O)NC(=O)[C@H](CC(=O)O)NC(=O)[C@H](CO)NC(=O)[C@H](CCCNC(=N)N)N(C)C(=O)c3ccccc3CSC2(C)C)C(=O)O)C(=O)O)NC1=O` [compound 204] (I: [NMeR]SDTL[Pen]F[dE][dK]-OH / II: [NMeR]SDTL[Pen]F[dE][dK]-OH; linker I:9-II:9 via Diglycolyl; linker I:N-I:6, II:N-II:6 via X1): in data set [2], the half-life was greater than 3 h.
On the same count and under the same terms, to `CC(C)C[C@@H]1NC(=O)[C@H]([C@@H](C)O)NC(=O)[C@H](CC(=O)O)NC(=O)[C@H](CO)NC(=O)[C@H](CCCNC(=N)N)N(C)C(=O)c2ccccc2CSC[C@@H](C(=O)N2Cc3ccccc3C[C@H]2C(=O)N[C@H](CCC(=O)O)C(=O)N[C@H](CCCCNC(=O)COCC(=O)NCCCC[C@@H](NC(=O)[C@@H](CCC(=O)O)NC(=O)[C@@H]2Cc3ccccc3CN2C(=O)[C@@H]2CSCc3ccccc3C(=O)N(C)[C@@H](CCCNC(=N)N)C(=O)N[C@@H](CO)C(=O)N[C@@H](CC(=O)O)C(=O)N[C@@H]([C@@H](C)O)C(=O)N[C@@H](CC(C)C)C(=O)N2)C(=O)O)C(=O)O)NC1=O` [compound 207] (I: [NMeR]SDTLC[Tic][dE][dK]-OH / II: [NMeR]SDTLC[Tic][dE][dK]-OH; linker I:9-II:9 via Diglycolyl; linker I:N-I:6, II:N-II:6 via X1) belongs greater than 3 h; to `CC(C)C[C@@H]1NC(=O)[C@H]([C@@H](C)O)NC(=O)[C@H](CC(=O)O)NC(=O)[C@H](CO)NC(=O)[C@H](CCCNC(=N)N)N(C)C(=O)c2ccccc2CSC(C)(C)[C@@H](C(=O)N[C@@H](Cc2ccc(-c3ccccc3)cc2)C(=O)N[C@H](CCC(=O)O)C(=O)N[C@H](CCCCNC(=O)COCC(=O)NCCCC[C@@H](NC(=O)[C@@H](CCC(=O)O)NC(=O)[C@H](Cc2ccc(-c3ccccc3)cc2)NC(=O)[C@H]2NC(=O)[C@H](CC(C)C)NC(=O)[C@H]([C@@H](C)O)NC(=O)[C@H](CC(=O)O)NC(=O)[C@H](CO)NC(=O)[C@H](CCCNC(=N)N)N(C)C(=O)c3ccccc3CSC2(C)C)C(=O)O)C(=O)O)NC1=O` [compound 208] (I: [NMeR]SDTL[Pen][Bip][dE][dK]-OH / II: [NMeR]SDTL[Pen][Bip][dE][dK]-OH; linker I:9-II:9 via Diglycolyl; linker I:N-I:6, II:N-II:6 via X1), greater than 3 h.
